# Laboratory results as given in patent publication US20140378426A1, “Methods and compositions for enhancing visual function” (priority 2013, published 2014).
# How the values were obtained:
# [1] = cited from earlier work
# [2] = target: T1, bovine rhodopsin activation of bovine rod transducin (Bos taurus, UniProt P02699); experiment: radioactive filter binding assay: rhodopsin activation of bovine rod transducin (35S-GTPγS binding); type: biochemical
# T1 construct: Rhodopsin can be purified from membrane fractions isolated from bovine rod outer segments; from tissue; host or cells: bovine retina / bovine rod outer segments
# From the text: Vision enhancing activity of the estradiol analogs or derivatives can be examined in accordance with methods described herein or well known in the art. For example, the compounds can be assessed for ability to promote rhodopsin activation of rod transducin using a well-described radioactive filter binding assay. Detailed procedures for carrying out the assay are described in the art, e.g., Kono et al., Biochem. 44:799, 2005; Kono et al., FEBS Lett. 580:229-232, 2006; and Robinson et al., Methods Enzymol. 315:207-218, 2000). […] Effect of estradiol or an analog compound on rhodopsin activation of rod transducing can then be measured by monitoring binding of [35S]GTPγS to transducin in the presence or absence of the compound. The reaction mixture can contain, e.g., an appropriate buffer (e.g., an HEPES buffer or 10 mM Tris/1 mM MES buffer (pH 7.5)), 1 mM dithiothreitol, 5 mM MgCl2, 115 mM NaCl, 2.5 μM transducin, 0.01% DM, and 5 nM pigment (as determined from the extinction coefficient).
# We examined the effect of the 17β-estradiol on opsin signaling and transducin activation. We measured the ability of estradiol to modulate rhodopsin activation of bovine rod transducin using the radioactive filter binding assay as described in Kono et al., Biochemistry 44:799-804, 2005; and Kono & Crouch, Methods Mol. Biol. 652:85-94, 2010. […]
# T1 sequence (P02699 whole entry): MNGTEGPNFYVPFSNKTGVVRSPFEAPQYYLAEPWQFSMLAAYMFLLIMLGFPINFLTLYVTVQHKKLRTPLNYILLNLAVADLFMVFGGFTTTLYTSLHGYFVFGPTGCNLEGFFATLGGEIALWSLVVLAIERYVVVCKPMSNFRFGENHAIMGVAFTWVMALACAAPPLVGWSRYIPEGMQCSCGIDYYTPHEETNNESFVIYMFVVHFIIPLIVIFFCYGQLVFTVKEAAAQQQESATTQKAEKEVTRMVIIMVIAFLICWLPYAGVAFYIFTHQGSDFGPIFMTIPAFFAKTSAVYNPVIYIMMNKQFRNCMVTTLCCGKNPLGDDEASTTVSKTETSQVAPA
compound,measurement,setting,value
C[C@]12CC[C@@H]3c4ccc(O)cc4CC[C@H]3[C@@H]1CC[C@@H]2O [17β-estradiol],potency in estrogenic effect relative to estriol,[1]; estradiol vs estriol,about 80 times
same,potency in estrogenic effect relative to estrone,[1]; estradiol vs estrone,about 10 times
same,35S-GTPγS bound to transducin in the presence vs. absence of 17β-estradiol,"[2]; bovine rhodopsin illuminated with 15 sec pulse of yellow light, Rho+estradiol vs Rho alone, FIG. 1",about three-fold
same,rhodopsin activation of rod transducin (result in words),[2]; presence of 17β-estradiol,significantly up-regulated
